# Experimental data as given in patent US6444668B1 (Wyeth, priority 1999, dated 2002).
row,SMILES,melting point
1,"CC1(C)OC(=O)Nc2ccc(-c3cc(C#N)cs3)cc21 [Example 90, 5-(4,4-Dimethyl-2-oxo-1,4-dihydro-2H-benzo[d][1,3]oxazin-6-yl)thiophene-3-carbonitrile]",255 to 260 °C
2,"CC1(C)OC(=O)Nc2c(Br)cc(-c3cc(F)cc(C#N)c3)cc21 [Example 124, 3-(8Bromo-4,4-dimethyl-2-oxo-1,4-dihydro-2H-3,1-benzoxazin-6-yl)-5-fluorobenzonitrile]",216 to 217 °C
3,"CCCCc1cc(C#N)sc1-c1ccc2c(c1)C(C)(C)OC(=O)N2 [Example 113, 5-(4,4-Dimethyl-2-oxo-1,4-dihydro-2H-benzo[d][1,3]oxazin-6-yl)4-n-butyl-thiophene-2-carbonitrile]",167 to 168 °C
4,"N#Cc1cc(-c2ccc3c(c2)C2(CCCCC2)OC(=O)N3)cs1 [Example 108, 4-(1,2-Dihydro-2-oxospiro[4H-3,1-benzoxazine-4,1-cyclohexan]-6-yl)2-thiophenecarbonitrile]",230 to 232 °C
5,"COc1cc(F)cc(-c2ccc3c(c2)C(C)(C)OC(=O)N3)c1 [Example 82, 6-(3-Fluoro-5-methoxy-phenyl)-4,4-dimethyl-1,4-dihydro-benzo[d][1,3]oxazin-2-one]",181 to 182 °C
6,"CC1(C)OC(=O)Nc2ccc(-c3cccc(C#N)c3F)cc21 [Example 120, 3-(4,4-Dimethyl-2-oxo-1,4-dihydro-2H-benzo[d][1,3]oxazin-6-yl)-2fluoro-benzonitrile]",192 to 198 °C
7,"CC1(C)OC(=O)Nc2ccc(-c3cccc(CC#N)n3)cc21 [Example 132, [6-(4,4-dimethyl-2-oxo-1,4dihydro-2H-3,1-benzoxazin-6-yl)pyridin-2-yl]acetonitrile]",210 to 212.5 °C
8,"COc1cccc(-c2ccc3c(c2)C2(CCC2)OC(=O)N3)c1 [Example 122, 6-(3-Methoxyphenyl)spiro[4H-3,1-benzoxazine-4,1-cyclobutan]-2(1H)-one]",145 to 146 °C
9,"CC(=O)Nc1ccc(-c2ccc3c(c2)C(C)(C)OC(=O)N3)cc1F [Example 137, N-[4-(4,4-Dimethyl-2-oxo-1,4-dihydro-2H-3,1-benzoxazin-6-yl)-2fluoro-phenyl]-acetamide]",245 to 247 °C
10,"CC1(C)OC(=O)Nc2c(O)cc(-c3cc(F)cc(C#N)c3)cc21 [Example 129, 3-(4,4-Dimethyl-8-hydroxy-2-oxo-1,4-dihydro-2H-3,1-benzoxazin-6yl)-5-fluorobenzonitrile]",197 to 198 °C
11,"CCN1C(=O)OC(C)(C)c2cc(-c3cc(F)cc(C#N)c3)ccc21 [Example 131, 3-(1-Ethyl-4,4-dimethyl-2-oxo-1,4-dihydro-2H-benzo[d][1,3]oxazin-6-yl)-5-fluoro-benzonitrile]",154 to 155 °C
12,"CC1(C)OC(=O)Nc2ccc(-c3coc(C=O)c3)cc21 [Example 144, 4-(4,4-Dimethyl-2-oxo-1,4-dihydro-2H-benzo[d][1,3]oxazin-6-yl)-furan-2-carbaldehyde]",262 to 263 °C
13,"CC1OC(=O)Nc2ccc(-c3cccc(Cl)c3)cc21 (stereo not shown) [Example 9, 6-(3-Chloro-phenyl)-4-methyl-1,4-dihydro-benzo[d][1,3]oxazin-2-one]",155 to 156 °C
14,"CC#CC1(C2CC2)OC(=O)Nc2ccc(-c3cccc(Cl)c3)cc21 (stereo not shown) [Example 42, 6-(3-Chloro-phenyl)-4-cyclopropyl-4-propyn-1-yl-1,4-dihydro-benzo [d][1,3]oxazin-2-one]",178 to 179 °C
15,"CC1(C)OC(=O)Nc2ccc(-c3ccc(C#N)o3)cc21 [Example 119, 5-(4,4Dimethyl-2-oxo-1,4-dihydro-2H-benzo[d][1,3]oxazin-6-yl)-furan-2-carbonitrile]",257 to 260 °C
16,"CC1(C)OC(=O)Nc2ccc(-c3cccc(C(=O)c4ccccc4)c3)cc21 [Example 51, 6-(3-Benzoyl-phenyl)-4,4-dimethyl-1,4dihydro-benzo[d][1,3]-oxazin-2-one]",156 to 157 °C
17,"C=CCC1(C)OC(=O)Nc2ccc(-c3cccc(Cl)c3)cc21 (stereo not shown) [Example 36, 4-Allyl-6-(3-chlorophenyl)-4-methyl-1,4-dihydro-benzo[d][1,3]oxazin-2-one]",128 to 129 °C
18,"CC1(C)OC(=O)Nc2ccc(-c3ccc(N)nc3)cc21 [Example 142, 6-(6-Amino-pyridin-3-yl)-4,4-dimethyl-1,4-dihydro-benzo[d][1,3]oxazine-2-one]",257 to 259 °C
19,"CC1(C)OC(=O)Nc2ccc(-c3cc(C(F)(F)F)cc(C(F)(F)F)c3)cc21 [Example 62, 6-(3,5-Bis-trifluoromethyl-phenyl)-4,4-dimethyl-1,4-dihydrobenzo[d][1,3]oxazin-2-one]",258 to 260 °C
20,"C#Cc1cccc(-c2ccc3c(c2)C(C)(C)OC(=O)N3)c1 [Example 74, 6-(3-Ethynyl-phenyl)-4,4-dimethyl-1,4dihydro-benzo[d][1,3]-oxazin-2-one]",171 to 172 °C

row,SMILES,melting point
1,"CN1C(=O)OC(C)(C)c2cc(-c3cc(F)cc(Br)c3)ccc21 [Example 45, 6-(3-Bromo-5fluorophenyl)-1,4,4-trimethyl-1,4-dihydrobenzo[d][1,3]oxazin-2-one]",157 to 158 °C
2,"Cn1cccc1-c1ccc2c(c1)C(C)(C)OC(=O)N2 [Example 98, 4,4-Dimethyl-6-(1-methyl-1H-pyrrol-2-yl)-1,4-dihydro-benzo[d][1,3]oxazin-2-one]",230 °C
3,"COc1cc(-c2cc(F)cc(C#N)c2)cc2c1NC(=O)OC2(C)C [Example 128, 3-(4,4-Dimethyl-8-methoxy-2-oxo-1,4-dihydro-2H-3,1-benzoxazin-6-yl)-5-fluorobenzonitrile]",252 to 253 °C
4,"CC(C)(C)OC(=O)n1c(-c2ccc3c(c2)C(C)(C)OC(=O)N3)ccc1[N+](=O)[O-] [Example 95, 2-(4,4Dimethyl-2-oxo-1,4-dihydro-2H-benzo[d][1,3]oxazin-6-yl)-5-nitro-pyrrole-1-carboxylic acid tert-butyl ester]",125 °C
5,"CCOC(OCC)N1C(=O)OC(C)(C)c2cc(-c3cc(F)cc(C#N)c3)ccc21 [Example 66, 3(1-Diethoxymethyl-4,4-dimethyl-2-oxo-1,4-dihydro-2H-benzo[d][1,3]oxazin-6-yl)-5-fluoro-benzonitrile]",123 to 124 °C
6,"CC1(C)OC(=O)Nc2ccc(-c3ccccc3Cl)cc21 [Example 7, 6-(2-Chloro-phenyl)-4,4-dimethyl-1,4-dihydro-benzo[d][1,3]oxazin-2-one]",181 to 182 °C
7,"CC1(C)OC(=O)Nc2ccc(-c3ccc[nH]3)cc21 [Example 97, 4,4-Dimethyl-6-(1H-pyrrol-2yl)-1,4-dihydro-benzo[d][1,3]-oxazin-2one]",202 °C (dec.)
8,"CC1(C)OC(=O)Nc2ccc(-c3cc(F)cc(CC#N)c3)cc21 [Example 133, 3-(4,4Dimethyl-2-oxo-1,4-dihydro-2H-benzo[d][1,3]-oxazin-6-yl)-5-fluoro-phenylacetonitrile]",218 to 220 °C
9,"CC1(C)OC(=O)Nc2c(Br)cc(-c3ccc(F)c(C#N)c3)cc21 [Example 125, 5-(8-Bromo-4,4-dimethyl-2-oxo-1,4-dihydro-2H-3,1-benzoxazin-6-yl)-2-fluorobenzonitrile]",235 to 236 °C
10,"CC1(C)OC(=O)Nc2c(F)cc(-c3csc(C#N)c3)cc21 [Example 88, 4-(8-Fluoro-4,4-dimethyl-2-oxo-1,4-dihydro-2H-benzo[d][1,3]oxazin-6-yl)-thiophene-2-carbonitrile]",250 to 251 °C
11,"CC1(C)OC(=O)Nc2ccc(-c3cccc(CC#N)c3)cc21 [Example 118, 3-(4,4Dimethyl-2-oxo-1,4-dihydro-2H-benzo[d][1,3]-oxazin-6-yl)phenylacetonitrile]",188 to 190 °C
12,"CC1(C)OC(=O)Nc2ccc(-c3cccc(F)c3F)cc21 [Example 130, 6-(2,3-Difluoro-phenyl)-4,4dimethyl-1,4-dihydro-benzo[d][1,3]oxazin-2-one]",166 to 167 °C
13,"CC#CC1(C#CC)OC(=O)Nc2ccc(-c3cccc(Cl)c3)cc21 [Example 44, 6(3-Chloro-phenyl)-4,4dipropyn-1-yl-1,4dihydrobenzo[d][1,3]oxazin-2-one]",151 °C (dec.)
14,"CC1(C)OC(=O)Nc2ccc(-c3cc(Br)cc(OC(F)(F)F)c3)cc21 [Example 57, 6-(3-Bromo-5-trifluoromethoxy-Phenyl)-4,4-dimethyl-1,4-dihydrobenzo[d][1,3]-oxazin-2-one]",214 to 216 °C
15,"CC1(Cc2ccccc2)OC(=O)Nc2ccc(-c3cccc(Cl)c3)cc21 (stereo not shown) [Example 40, 4-Benzyl-6-(3-chloro-phenyl)-4-methyl-1,4-dihydro-benzo[d][1,3]oxazin-2-one]",187 to 188 °C
16,"CC1(C)OC(=O)Nc2ccc(-c3ccc(CC#N)c(F)c3)cc21 [Example 135, 4-(4,4Dimethyl-2-oxo-1,4-dihydro-2H-benzo[d][1,3]oxazin-6yl)-2-fluorophenylacetonitrile]",253 to 256 °C
17,"CC1(C)OC(=O)Nc2ccc(-c3cccc(-c4nnn[nH]4)c3)cc21 [Example 52, 4,4-Dimethyl-6-[3-(1H-tetrazol-5-yl)-phenyl]-1,4dihydrobenzo[d][1,3]oxazin-2-one]",238 to 240 °C
18,"CCCc1cc(C#N)sc1-c1ccc2c(c1)C(C)(C)OC(=O)N2 [Example 112, 5-(4,4-Dimethyl-2-oxo-1,4-dihydro-2H-benzo[d][1,3]oxazin-6-yl)4-n-propyl-thiophene-2-carbonitrile]",160 to 162 °C
19,"COc1cc(C#N)cc(-c2ccc3c(c2)C(C)(C)OC(=O)N3)c1 [Example 63, 3-(4,4-Dimethyl-2-oxo-1,4-dihydro-2H-benzo[d][1,3]oxazin-6-yl)-5-methoxy-benzonitrile]",254 to 255 °C
20,"N#Cc1cc(F)cc(-c2ccc3c(c2)C2(CCCCC2)OC(=O)N3)c1 [Example 107, 3-(1,2-Dihydro-2-oxospiro[4H-3,1-benzoxazine-4,1-cyclohexan]-6-yl)-5-fluorobenzonitrile]",250 to 253 °C
